Test results from patent US20090087495A1, “Food for Improving Motor Function” (Nippon Meat Packers, Inc., priority 2005, published 2009).

tested on: male ddY mice; experiment: Stamina improvement: swimming until exhaustion in a running water pool; assay type: in vivo; details: material 10 mg/ml, oral 10 ml/kg once a day for seven days; 10 animals per group; relative value, Comparative Example 21 (control) = 100
Excerpt: The test solution was given to mice to check for the influence on the improvement of stamina. Five-week-old male ddY mice (purchased from Japan SLC Co. Ltd.) were raised, letting them be free to take solid feed (CE-2, Japan Clare Co. Ltd., Tokyo) and water (10 mice per group). […] After one week of preparatory raising and swim training, they were allowed to freely take ordinary solid feed and water. […] On the day just before start of giving the test solution and on the 7th day after start of giving the test solution, the experimental animals were let to swim until exhaustion in the pool (velocity at center: 23.6 cm/sec.) to measure the swimming duration and to obtain the elongation of the swimming duration in seven days.

Molecule | Elongation of swimming duration (%), without chicken extract powder [%]
O=C(O)CC(O)(CC(=O)O)C(=O)O [Comparative Example 7, citric acid] | 110
antocyanine [Comparative Example 12] | 120
C[N+](C)(C)CC(O)CC(=O)[O-] (stereo not drawn) [Comparative Example 8, carnitine] | 110
heme iron [Comparative Example 10] | 110
Cn1c(=O)c2c(ncn2C)n(C)c1=O [Comparative Example 6, caffeine] | 110
C/C=C1/[C@H](O[C@@H]2O[C@H](CO)[C@@H](O)[C@H](O)[C@H]2O)OC=C(C(=O)OC)[C@H]1CC(=O)OCCc1ccc(O)c(O)c1 [Comparative Example 13, oleuropein] | 120
CN(CC(=O)O)C(=N)N [Comparative Example 1, creatine] | 110
proanthocyanidin [Comparative Example 11] | 110
COC1=C(OC)C(=O)C(C/C=C(\C)CC/C=C(\C)CC/C=C(\C)CC/C=C(\C)CC/C=C(\C)CC/C=C(\C)CC/C=C(\C)CC/C=C(\C)CC/C=C(\C)CCC=C(C)C)=C(C)C1=O [Comparative Example 14, ubiquinone (CoQ10)] | 110
O=C(O)CCCCC1CCSS1 (stereo not drawn) [Comparative Example 9, thioctic acid] | 110
N=C(N)NCCC[C@H](N)C(=O)O [Comparative Example 2, arginine] | 110
tocotrienol [Comparative Example 15] | 120
